According to PubChem BioAssay (NCI):
Several values for one entry are separate records, joined by “and”; a condition that tells them apart may be missing. Equal entries are not always repeated.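 How tested: cells in 96-well plates exposed to compound for 48 hours at five concentrations. GI50 = concentration required for 50% inhibition of growth. At the TGI there is no net growth.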

How the values were obtained:
Experiment in all cases: DTP human tumour cell line panel, 48 h
[1] = system: DLD-1 colon
[2] = system: DMS 114 small cell lung
[3] = system: SK-MEL-28 melanoma
[4] = system: SNB-19 CNS
[5] = system: SNB-78 CNS
[6] = system: SW-620 colon
[7] = system: SK-OV-3 ovarian
[8] = system: HS 578T breast
[9] = system: PC-3 prostate
[10] = system: BT-549 breast

| Structure (SMILES) | TGI [1] | TGI [2] | TGI [3] | TGI [4] | TGI [5] | TGI [6] | TGI [7] | TGI [8] | TGI [9] | TGI [10] | GI50 [1] | GI50 [2] | GI50 [3] | GI50 [7] | GI50 [4] | GI50 [6] | GI50 [10] | GI50 [8] | GI50 [9] |
| --- | --- | --- | --- | --- | --- | --- | --- | --- | --- | --- | --- | --- | --- | --- | --- | --- | --- | --- | --- |
| COc1cc(CCc2ccc(OCCN(C)C)cc2)cc(OC)c1OC | > 100 µM | > 100 µM | > 100 µM | > 100 µM | > 100 µM | > 100 µM |  |  |  |  |  |  |  |  |  |  |  |  |  |
| CCc1cccc(C(C)C)c1NC(=O)C(=O)C(Cc1nc2ccccc2[nH]c1=O)C(=O)OC (configuration not stated) | > 100 µM | 30.5 µM | > 100 µM | > 100 µM |  |  | > 100 µM |  |  |  |  |  |  |  |  |  |  |  |  |
| COC(=O)C1CC2(CC3=C1CCCC3)OCCO2 (configuration not stated) | > 100 µM | > 100 µM | > 100 µM | > 100 µM | > 100 µM | > 100 µM | > 100 µM |  |  |  |  |  |  |  |  |  |  |  |  |
| Cc1cc2c(c(C#N)c1C)NC(=O)CCC2=O | > 100 µM | > 100 µM | > 100 µM |  | > 100 µM | > 100 µM |  |  |  |  |  |  |  |  |  |  |  |  |  |
| CCOc1ccccc1NC(=O)C(=O)CC(=O)c1c(C)n([O-])c2ccccc2[n+]1=O |  | > 100 µM | > 100 µM | > 100 µM | > 100 µM | > 100 µM | > 100 µM |  |  |  |  |  |  |  |  |  |  |  |  |
| CC1=C(C(=O)Nc2c(C)cccc2C)C(c2ccc3c(c2)OCO3)C(C(=O)Nc2c(C)cccc2C)=C(C)N1 | 86.8 µM | 38.1 µM | 46 µM | 32 µM | 78.8 µM | 36.5 µM | > 100 µM |  |  |  |  |  |  |  |  |  |  |  |  |
| O=c1c2ccccc2[nH]c(=S)n1-c1ccc(Br)cc1 | > 100 µM | > 100 µM | > 100 µM | > 100 µM | > 100 µM | > 100 µM |  |  |  |  |  |  |  |  |  |  |  |  |  |
| CC1OC(OCC2OC(Oc3c(-c4ccc(O)cc4)oc4cc(O)cc(O)c4c3=O)C(OC3OCC(O)(CO)C3O)C(O)C2O)C(O)C(O)C1O (configuration not stated) | > 100 µM | > 100 µM | > 100 µM | > 100 µM | > 100 µM | > 100 µM | > 100 µM |  |  |  |  |  |  |  |  |  |  |  |  |
| Cc1cnc2c(C)ccc([N+](=O)[O-])c2c1NCCCN(C)C |  | > 100 µM | > 100 µM | > 100 µM | > 100 µM | > 100 µM | > 100 µM |  |  |  |  |  |  |  |  |  |  |  |  |
| COc1cc([C@H]2c3cc4c(cc3O[C@@]3(O)COC(=O)[C@@H]23)OCO4)cc(OC)c1OC | > 100 µM | > 100 µM | > 100 µM | > 100 µM | > 100 µM | > 100 µM | > 100 µM | > 100 µM | > 100 µM |  |  |  |  |  |  |  |  |  |  |
| CC[C@H](C)N(CCN)C(=O)c1cc2ccccc2c(-c2ccccc2Cl)n1 |  | 28 µM | 27 µM | 30.2 µM | 31.6 µM | 30 µM |  |  |  |  |  |  |  |  |  |  |  |  |  |
| CC1=C(C(=O)Nc2ccccc2C)C(c2ccccc2)C(C(=O)Nc2ccccc2C)=C(C)N1 | > 100 µM | > 100 µM | > 100 µM | > 100 µM | 97.4 µM | > 100 µM | > 100 µM |  |  |  |  |  |  |  |  |  |  |  |  |
| O=C(CNc1nncs1)NO | > 100 µM | > 100 µM | > 100 µM | > 100 µM | > 100 µM | > 100 µM | > 100 µM |  |  |  |  |  |  |  |  |  |  |  |  |
| COc1cccc2cc(C)c(C(=O)c3ccccc3)nc12 | > 100 µM | > 100 µM | > 100 µM | > 100 µM | > 100 µM | > 100 µM |  |  |  |  |  |  |  |  |  |  |  |  |  |
| Nn1c(-c2ccccc2)nc2ccc(Br)cc2c1=O | > 100 µM | > 100 µM | > 100 µM | > 100 µM | > 100 µM | > 100 µM | > 100 µM |  |  |  |  |  |  |  |  |  |  |  |  |
| CC(=O)C1CC(C)=CCC12C(=O)Nc1ccccc12 (configuration not stated) | > 100 µM | > 100 µM | > 100 µM | > 100 µM |  | > 100 µM | > 100 µM |  |  |  |  |  |  |  |  |  |  |  |  |
| C[C@@H]1C[C@@H](O)[C@]2(O)O[C@@H]3C[C@@]4(C=O)[C@@H](CC[C@@H]5[C@@H]4CC[C@]4(C)[C@@H](C6=CC(=O)OC6)CC[C@]54O)C[C@H]3O[C@@H]2O1 | 0.0375 µM and 0.033 µM | 0.0094 µM and 0.0134 µM | 0.143 µM and 0.683 µM and 0.354 µM | 0.145 µM and 0.217 µM and 0.184 µM | 0.211 µM | 0.0591 µM and 0.221 µM and 0.164 µM |  |  | 0.518 µM | 0.179 µM | 0.0053 µM | 0.005 µM | 0.167 µM and 0.0409 µM | 0.0636 µM and 0.0173 µM | 0.101 µM and 0.0197 µM | 0.0525 µM and 0.0111 µM |  |  |  |
| CN1CC[C@@H](c2c(O)cc(O)c3c(=O)cc(-c4ccccc4Cl)oc23)[C@@H](O)C1 | > 100 µM | 0.334 µM | 0.294 µM and 1.45 µM | > 37.3 µM | > 17.6 µM | 23.2 µM | > 100 µM |  |  |  |  |  | 0.101 µM and 0.0902 µM | 0.201 µM and 0.428 µM | 0.103 µM | 0.0594 µM and 0.0653 µM | 0.171 µM and 0.178 µM | 0.0675 µM and 0.11 µM and 0.0213 µM | 0.0655 µM and 0.0735 µM |
| O=C(O)CSc1n[nH]c(-c2ccc(O)cc2)n1 | > 100 µM | > 100 µM | > 100 µM | > 100 µM | > 100 µM | > 100 µM | > 100 µM |  |  |  |  |  |  |  |  |  |  |  |  |
| O=C(O)c1c(-c2cccc3ccccc23)sc(-c2cccc3ccccc23)c1C(=O)O | > 100 µM | > 100 µM | > 100 µM | > 100 µM | > 100 µM | > 100 µM | > 100 µM |  |  |  |  |  |  |  |  |  |  |  |  |
| COc1cc(OC)c([C@@H]2OC(=O)C3C2C(=O)O[C@H]3c2cc(OC)c(OC)cc2OC)cc1OC (some centres not stated) | > 100 µM | > 100 µM | > 100 µM | > 100 µM | > 100 µM | > 10 µM | > 100 µM |  |  |  |  |  |  |  |  |  |  |  |  |
| CCOC(=O)[C@@]1(C)C=C2O[C@@H]3OC4(CCCCC4)O[C@@H]3C2=C2C(O)=CC=C(O)[C@]21C(=O)OC | > 68 µM | > 68 µM | > 68 µM | > 68 µM | > 68 µM | > 68 µM | > 68 µM |  |  |  |  |  |  |  |  |  |  |  |  |
| Cn1c2c(c3ccccc31)CCN(CCCCN1CCc3c(n(C)c4ccccc34)C1=O)C2 | > 100 µM | > 100 µM | > 100 µM | > 100 µM | > 100 µM | > 100 µM | > 100 µM |  |  |  |  |  |  |  |  |  |  |  |  |
| Cc1cc(C)nc(NS(=O)(=O)c2ccc(Nc3c4ccccc4nc4c(C(=O)Nc5ccc(S(=O)(=O)N=C(N)N)cc5)ccc(Cl)c34)cc2)n1 | > 100 µM | 41.8 µM |  | 46.7 µM | > 100 µM |  | 51 µM |  |  |  |  |  |  |  |  |  |  |  |  |
| O=C1C(=O)N(C(=O)c2ccc(Cl)c(Cl)c2)c2ccccc21 | > 100 µM | > 100 µM | > 100 µM | > 100 µM | > 100 µM | > 100 µM | > 100 µM |  |  |  |  |  |  |  |  |  |  |  |  |
| COc1ccc(C(=O)/C(Br)=C/C(=O)O)cc1 | 73.5 µM | 114 µM | 89.1 µM and 89.4 µM | 188 µM and 375 µM |  | 63.6 µM and 145 µM | 358 µM and 299 µM | 649 µM and 399 µM | 159 µM and 257 µM | 96.4 µM and 406 µM |  |  |  |  | 56.3 µM | 19.2 µM and 24.7 µM | 242 µM | 43.1 µM and 30.9 µM | 74.5 µM |
| CC(=O)O/C=C(/C=C/OC(C)=O)C(C/C=C(\C)C#CC=C(C)C)OC(C)=O (configuration not stated) | > 100 µM | 38.5 µM |  | > 100 µM | 72.2 µM | > 100 µM | > 100 µM |  |  |  |  |  |  |  |  |  |  |  |  |
